Reference: ChEMBL document CHEMBL5143608, “Peptide-based long-acting co-agonists of GLP-1 and cholecystokinin 1 receptors as novel anti-diabesity agents” (Eur J Med Chem, 2022)
The source made the active and inactive calls. No cut-off for these calls is given here. *1 amine or outer side, *2 acyl side, *3 side chain or, on linkers, in order; H or OH if unused. Where a SMILES comes first, the peptide text is derived from it. [ ]: non-standard residue; d: D form. The star is where a group is joined. Phe(4-CH2SO3H) = N[C@@H](Cc1ccc(CS(=O)(=O)O)cc1)C(=O)O; C18 diacid = O=C(O)CCCCCCCCCCCCCCCCC(=O)*; γGlu = O=C(O)[C@H](CCC(=O)[*:2])N[*:1]; NMeF = CN[C@@H](Cc1ccccc1)C(=O)O; dNMeD = CN[C@H](CC(=O)O)C(=O)O; Nle = CCCC[C@H](N)C(=O)O; AEEA = NCCOCCOCC(=O)O

How the values were obtained:
[1] = molecular target: T1, Cholecystokinin receptor type A (Homo sapiens, UniProt P32238); assay: Agonist activity at human CCK1R expressed in HEK293 cells assessed as ERK1/2 phosphorylation incubated for 5 mins by AlphaScreen assay; format: functional, cell-based
T1 sequence (P32238 whole entry): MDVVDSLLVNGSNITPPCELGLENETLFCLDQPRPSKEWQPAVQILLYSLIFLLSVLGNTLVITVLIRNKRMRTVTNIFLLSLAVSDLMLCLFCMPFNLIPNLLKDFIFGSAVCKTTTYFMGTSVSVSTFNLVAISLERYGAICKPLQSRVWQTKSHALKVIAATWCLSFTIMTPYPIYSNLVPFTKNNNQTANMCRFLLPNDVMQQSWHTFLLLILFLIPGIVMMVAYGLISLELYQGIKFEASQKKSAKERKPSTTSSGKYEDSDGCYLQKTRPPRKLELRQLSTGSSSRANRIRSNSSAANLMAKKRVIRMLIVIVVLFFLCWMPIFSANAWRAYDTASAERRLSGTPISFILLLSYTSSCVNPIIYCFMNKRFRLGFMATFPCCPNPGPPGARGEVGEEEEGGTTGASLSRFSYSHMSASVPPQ

[2] = molecular target: T2, Gastrin/cholecystokinin type B receptor (Homo sapiens, UniProt P32239); assay: Agonist activity at human CCK2R expressed in HEK293 cells assessed as ERK1/2 phosphorylation incubated for 5 mins by AlphaScreen assay; format: functional, cell-based
T2 sequence (P32239 whole entry): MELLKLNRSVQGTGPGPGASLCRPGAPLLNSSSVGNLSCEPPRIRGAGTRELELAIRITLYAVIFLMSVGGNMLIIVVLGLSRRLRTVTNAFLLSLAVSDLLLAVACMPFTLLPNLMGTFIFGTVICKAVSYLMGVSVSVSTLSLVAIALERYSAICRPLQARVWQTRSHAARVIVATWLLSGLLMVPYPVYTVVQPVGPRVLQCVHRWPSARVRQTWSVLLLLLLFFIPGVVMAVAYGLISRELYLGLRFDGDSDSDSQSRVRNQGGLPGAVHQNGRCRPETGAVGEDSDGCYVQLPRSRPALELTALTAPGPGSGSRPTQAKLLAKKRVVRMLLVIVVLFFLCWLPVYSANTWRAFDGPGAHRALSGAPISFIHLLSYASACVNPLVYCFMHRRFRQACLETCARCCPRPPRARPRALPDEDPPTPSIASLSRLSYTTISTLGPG

Mus musculus [3] = assay: Anti-diabesity activity against high fat diet-induced DIO C57BL/6 mouse model assessed as decrease in body weight at 25 nmol/kg, sc administered for 2 weeks; format: functional; details: C57BL/6, 336 h, time 14 day
Mus musculus [4] = assay: Anti-diabesity activity against high fat diet-induced DIO C57BL/6 mouse model assessed as reduction in food intake at 25 nmol/kg, sc administered for 2 weeks; format: functional, organism-based; details: time 14.0 day
Mus musculus [5] = assay: Anti-diabesity activity against high fat diet-induced DIO C57BL/6 mouse model assessed as reduction in fat mass accumulation at 25 nmol/kg, sc administered for 2 weeks and measured on day 15 by NMR analysis; format: functional, organism-based; details: time 15.0 day
Mus musculus [6] = assay: Anti-diabesity activity against high fat diet-induced DIO C57BL/6 mouse model assessed as reduction in fasted blood glucose level at 25 nmol/kg, sc administered for 2 weeks and measured on day 15 by glucometer analysis; format: functional, organism-based; details: time 15.0 day
Mus musculus [7] = assay: Hypoglycemic activity in db/db mouse assessed as improvement in glucose tolerance at 25 nmol/kg, ip administered 30 min before oral glucose administration and measured upto 120 mins by OGTT; format: functional, organism-based
Mus musculus [8] = assay: Hypoglycemic activity in db/db mouse assessed as reduction in glucose excursion at 25 nmol/kg, ip administered 30 min before oral glucose administration and measured upto 120 mins by OGTT; format: functional, organism-based
Mus musculus [9] = assay: Insulinotropic activity in db/db mouse assessed as elevation of plasma insulin level at 25 nmol/kg, ip administered 30 min before oral glucose administration and measured upto 60 mins by ELISA; format: functional, organism-based; details: time <= 90.0 min
Mus musculus [10] = assay: Anti-diabesity activity in DIO C57BL/6 mouse assessed as reduction in body weight at 10 nmol/kg, sc administered every 2 days for 10 days; format: functional; details: C57BL/6, 240 h, time 10 day
Mus musculus [11] = assay: Anti-diabesity activity in DIO C57BL/6 mouse assessed as reduction in body weight at 25 nmol/kg, sc administered every 2 days for 10 days; format: functional; details: C57BL/6, 240 h, time 10 day
Mus musculus [12] = assay: Anti-diabesity activity in DIO C57BL/6 mouse assessed as improvement in insulin sensitivity at 25 nmol/kg, sc administered every 2 days for 10 days by insulin tolerance test; format: functional, organism-based; details: time 10.0 day
Mus musculus [13] = assay: Anti-diabesity activity against DIO C57BL/6 mouse assessed as reduction in body weight at 25 nmol/kg, sc administered every 2 days for 3 weeks; format: functional; details: C57BL/6, 504 h, time 21 day
Mus musculus [14] = assay: Anti-diabesity activity against DIO C57BL/6 mouse assessed as reduction in cumulative food intake at 25 nmol/kg, sc administered every 2 days for 3 weeks; format: functional, organism-based; details: time 21.0 day
Mus musculus [15] = assay: Anti-diabesity activity against DIO C57BL/6 mouse assessed as decrease in fat mass at 25 nmol/kg, sc administered every 2 days for 3 weeks; format: functional, organism-based; details: time 21.0 day
Mus musculus [16] = assay: Anti-diabesity activity against DIO C57BL/6 mouse assessed as reduction in fasted blood glucose level at 25 nmol/kg, sc administered every 2 days for 3 weeks; format: functional, organism-based; details: time 21.0 day
Mus musculus [17] = assay: Anti-diabesity activity against DIO C57BL/6 mouse assessed as improvement in glucose tolerance at 25 nmol/kg, sc administered every 2 days for 3 weeks by OGTT; format: functional, organism-based; details: time 21.0 day
Mus musculus [18] = assay: Anti-diabesity activity against DIO C57BL/6 mouse assessed as reduction in cholesterol level in serum at 25 nmol/kg, sc administered every 2 days for 3 weeks; format: functional, organism-based; details: time 21.0 day
Mus musculus [19] = assay: Anti-diabesity activity against DIO C57BL/6 mouse assessed as reduction in triglycerides level in serum at 25 nmol/kg, sc administered every 2 days for 3 weeks; format: functional, organism-based; details: time 21.0 day
Mus musculus [20] = assay: Anti-diabesity activity in DIO C57BL/6 mouse assessed as reduction in body weight at 100 nmol/kg, sc administered every 2 days for 10 days; format: functional; details: C57BL/6, 240 h, time 10 day
Mus musculus [21] = assay: Anti-diabesity activity against high fat diet-induced DIO C57BL/6 mouse model assessed as improvement in glucose tolerance level at 25 nmol/kg, sc administered for 2 weeks and measured on day 16 by oral glucose tolerance test; format: functional, organism-based; details: time 16.0 day
Mus musculus [22] = assay: Anorectic activity in ICR mouse assessed as decrease in food intake at 25 nmol/kg, ip and measured after 24 hrs; format: functional, organism-based
BRIN-BD11 = assay: Insulinotropic activity in rat BRIN-BD11 cells assessed as increase in insulin secretion incubated for 20 mins by radioimmunoassay; format: functional, cell-based; details: DDE = dose-dependent effect

CCCC[C@H](NC(=O)[C@H](Cc1ccc(CS(=O)(=O)O)cc1)NC(=O)[C@H](CC(=O)O)NC(=O)COCCOCCNC(=O)COCCOCCNC(=O)CC[C@H](NC(=O)CCCCCCCCCCCCCCCCC(=O)O)C(=O)O)C(=O)NCC(=O)N[C@@H](Cc1c[nH]c2ccccc12)C(=O)N[C@@H](CCCC)C(=O)N(C)[C@H](CC(=O)O)C(=O)N(C)[C@@H](Cc1ccccc1)C(N)=O ({C18 diacid-γGlu-AEEA-AEEA}-D[Phe(4-CH2SO3H)][Nle]GW[Nle][dNMeD][NMeF]-NH2)
EC50 [1]: 0.21 nM | EC50 [2]: > 100 nM | inhibition in vivo at 0.025 µmol/kg (Mus musculus [3]): 7.1% | Activity (Mus musculus [4]): Active | Activity (Mus musculus [5]): Active | Activity (Mus musculus [6]): Active | Activity (Mus musculus [7]): Active | Activity (Mus musculus [8]): Active | Activity (Mus musculus [9]): Active | inhibition in vivo at 0.01 µmol/kg (Mus musculus [10]): 3.9% | inhibition in vivo at 0.025 µmol/kg (Mus musculus [11]): 6.1% | Activity (Mus musculus [12]): Active | inhibition in vivo at 0.025 µmol/kg (Mus musculus [13]): 9.8% | Activity (Mus musculus [14]): Active | Activity (Mus musculus [15]): Active | Activity (Mus musculus [16]): Active | Activity (Mus musculus [17]): Active | Activity (Mus musculus [18]): Active | Activity (Mus musculus [19]): Active | inhibition in vivo at 0.1 µmol/kg (Mus musculus [20]): 10% | Activity (Mus musculus [21]): Active | Activity (Mus musculus [22]): Active | Activity (BRIN-BD11): Dde
